Test results taken from ChEMBL document CHEMBL3045199, “Synthesis of some (E)-6-[2-(furan-2-yl)ethenyl]-1,2,4-triazin-5-ones and their biological evaluation as antitumor agents” (2013).

Experiments:
Format in all cases: functional
OVCAR-4 = experiment: Cytotoxicity against Homo sapiens (human) OVCAR4 cells after 48 hr by SRB assay; details: OVCAR-4, 48 h, read-out: pGI50 (converted)
SF-268 = experiment: Cytotoxicity against Homo sapiens (human) SF268 cells after 48 hr by SRB assay; details: SF-268, 48 h, read-out: pGI50 (converted)
SN12C = experiment: Cytotoxicity against Homo sapiens (human) SN12C cells after 48 hr by SRB assay; details: read-out: pGI50 (converted)
UO-31 = experiment: Cytotoxicity against Homo sapiens (human) UO31 cells after 48 hr by SRB assay; details: UO-31, 48 h, read-out: pGI50 (converted)
M14 = experiment: Cytotoxicity against Homo sapiens (human) M14 cells after 48 hr by SRB assay; details: M14, 48 h, read-out: pGI50 (converted)
SW-620 = experiment: Cytotoxicity against Homo sapiens (human) SW620 cells after 48 hr by SRB assay; details: SW-620, 48 h, read-out: pGI50 (converted)
HCT-15 = experiment: Cytotoxicity against Homo sapiens (human) HCT15 cells after 48 hr by SRB assay; details: HCT-15, 48 h, read-out: pGI50 (converted)
ACHN = experiment: Cytotoxicity against Homo sapiens (human) ACHN cells after 48 hr by SRB assay; details: read-out: pGI50 (converted)
BT-549 = experiment: Cytotoxicity against Homo sapiens (human) BT549 cells after 48 hr by SRB assay; details: BT-549, 48 h, read-out: pGI50 (converted)
IGROV-1 = experiment: Cytotoxicity against Homo sapiens (human) IGROV1 cells after 48 hr by SRB assay; details: IGROV-1, 48 h, read-out: pGI50 (converted)
PC-3 = experiment: Cytotoxicity against Homo sapiens (human) PC3 cells after 48 hr by SRB assay; details: PC-3, 48 h, read-out: pGI50 (converted)
SK-MEL-28 = experiment: Cytotoxicity against Homo sapiens (human) SK-MEL-28 cells after 48 hr by SRB assay; details: SK-MEL-28, 48 h, read-out: pGI50 (converted)
NCI-H23 = experiment: Cytotoxicity against Homo sapiens (human) NCI-H23 cells after 48 hr by SRB assay; details: NCI-H23, 48 h, read-out: pGI50 (converted)
SK-MEL-2 = experiment: Cytotoxicity against Homo sapiens (human) SK-MEL-2 cells after 48 hr by SRB assay; details: SK-MEL-2, 48 h, read-out: pGI50 (converted)
UACC-62 = experiment: Cytotoxicity against Homo sapiens (human) UACC62 cells after 48 hr by SRB assay; details: UACC-62, 48 h, read-out: pGI50 (converted)
HCT-116 = experiment: Cytotoxicity against Homo sapiens (human) HCT116 cells after 48 hr by SRB assay; details: HCT-116, 48 h, read-out: pGI50 (converted)
SF-539 = experiment: Cytotoxicity against Homo sapiens (human) SF539 cells after 48 hr by SRB assay; details: SF-539, 48 h, read-out: pGI50 (converted)
OVCAR-3 = experiment: Cytotoxicity against Homo sapiens (human) OVCAR3 cells after 48 hr by SRB assay; details: OVCAR-3, 48 h, read-out: pGI50 (converted)
A549 = experiment: Cytotoxicity against Homo sapiens (human) A549 cells after 48 hr by SRB assay; details: A549, 48 h, read-out: pGI50 (converted)
HCC 2998 = experiment: Cytotoxicity against Homo sapiens (human) HCC2998 cells after 48 hr by SRB assay; details: HCC 2998, 48 h, read-out: pGI50 (converted)
SF-295 = experiment: Cytotoxicity against Homo sapiens (human) SF295 cells after 48 hr by SRB assay; details: SF-295, 48 h, read-out: pGI50 (converted)
U-251 = experiment: Cytotoxicity against Homo sapiens (human) U251 cells after 48 hr by SRB assay; details: U-251, 48 h, read-out: pGI50 (converted)
NCI-H522 = experiment: Cytotoxicity against Homo sapiens (human) NCI-H522 cells after 48 hr by SRB assay; details: NCI-H522, 48 h, read-out: pGI50 (converted)
NCI-H322M = experiment: Cytotoxicity against Homo sapiens (human) NCI-H322M cells after 48 hr by SRB assay; details: read-out: pGI50 (converted)
KM12 = experiment: Cytotoxicity against Homo sapiens (human) KM12 cells after 48 hr by SRB assay; details: KM12, 48 h, read-out: pGI50 (converted)
HT-29 = experiment: Cytotoxicity against Homo sapiens (human) HT-29 cells after 48 hr by SRB assay; details: HT-29, 48 h, read-out: pGI50 (converted)
NCI-H460 = experiment: Cytotoxicity against Homo sapiens (human) NCI-H460 cells after 48 hr by SRB assay; details: NCI-H460, 48 h, read-out: pGI50 (converted)
OVCAR-8 = experiment: Cytotoxicity against Homo sapiens (human) OVCAR8 cells after 48 hr by SRB assay; details: OVCAR-8, 48 h, read-out: pGI50 (converted)
COLO 205 = experiment: Cytotoxicity against Homo sapiens (human) COLO205 cells after 48 hr by SRB assay; details: COLO 205, 48 h, read-out: pGI50 (converted)
786-0 = experiment: Cytotoxicity against Homo sapiens (human) 786-0 cells after 48 hr by SRB assay; details: 786-0, 48 h, read-out: pGI50 (converted)
RXF 393 = experiment: Cytotoxicity against Homo sapiens (human) RXF393 cells after 48 hr by SRB assay; details: RXF 393, 48 h, read-out: pGI50 (converted)
SNB-75 = experiment: Cytotoxicity against Homo sapiens (human) SNB75 cells after 48 hr by SRB assay; details: SNB-75, 48 h, read-out: pGI50 (converted)
MOLT-4 = experiment: Cytotoxicity against Homo sapiens (human) MOLT4 cells after 48 hr by SRB assay; details: MOLT-4, 48 h, read-out: pGI50 (converted)
SNB-19 = experiment: Cytotoxicity against Homo sapiens (human) SNB19 cells after 48 hr by SRB assay; details: SNB-19, 48 h, read-out: pGI50 (converted)

For `O=c1[nH]cc(F)c(=O)[nH]1` [FLUOROURACIL], the GI50 (OVCAR-4) was 63.1 µM, the GI50 (SF-268) was 50.1 µM and the GI50 (SN12C) was 25.1 µM. For the same compound, the GI50 (UO-31) was 5.01 µM, the GI50 (M14) was 50.1 µM and the GI50 (SW-620) was 25.1 µM. It also gave a GI50 (HCT-15) of 6.31 µM, a GI50 (ACHN) of 10 µM and a GI50 (BT-549) of 100 µM. For the same compound, the GI50 (IGROV-1) was 12.6 µM, the GI50 (PC-3) was 50.1 µM and the GI50 (SK-MEL-28) was 50.1 µM. The GI50 (NCI-H23) was 12.6 µM, the GI50 (SK-MEL-2) was 398 µM and the GI50 (UACC-62) was 12.6 µM. The GI50 (HCT-116) was 3.98 µM, the GI50 (SF-539) was 1.26 µM and the GI50 (OVCAR-3) was 25.1 µM. For the same compound, the GI50 (A549) was 2 µM, the GI50 (HCC 2998) was 1.58 µM and the GI50 (SF-295) was 50.1 µM. The GI50 (U-251) was 39.8 µM, the GI50 (NCI-H522) was 39.8 µM and the GI50 (NCI-H322M) was 20 µM. The GI50 (KM12) was 10 µM, the GI50 (HT-29) was 6.31 µM and the GI50 (NCI-H460) was 1 µM. It also gave a GI50 (OVCAR-8) of 20 µM, a GI50 (COLO 205) of 6.31 µM and a GI50 (786-0) of 12.6 µM. The GI50 (RXF 393) was 50.1 µM, the GI50 (SNB-75) was 200 µM and the GI50 (MOLT-4) was 12.6 µM. It also gave a GI50 (SNB-19) of 126 µM.
